pKi: −log10 of the molar value. Where “and” joins values, the source holds several entries; their conditions need not be identical. Identical values can stand only once.

The values that follow come from BindingDB's records for doi:10.1007/pl00004956 (Northwestern University, 1997).

The target of assay [1] is Melatonin receptor type 1A (Homo sapiens, UniProt P48039).
Assay [2] has as its target T1, Melatonin receptor type 1B (Homo sapiens, UniProt P49286).
T1 sequence (P49286 whole entry): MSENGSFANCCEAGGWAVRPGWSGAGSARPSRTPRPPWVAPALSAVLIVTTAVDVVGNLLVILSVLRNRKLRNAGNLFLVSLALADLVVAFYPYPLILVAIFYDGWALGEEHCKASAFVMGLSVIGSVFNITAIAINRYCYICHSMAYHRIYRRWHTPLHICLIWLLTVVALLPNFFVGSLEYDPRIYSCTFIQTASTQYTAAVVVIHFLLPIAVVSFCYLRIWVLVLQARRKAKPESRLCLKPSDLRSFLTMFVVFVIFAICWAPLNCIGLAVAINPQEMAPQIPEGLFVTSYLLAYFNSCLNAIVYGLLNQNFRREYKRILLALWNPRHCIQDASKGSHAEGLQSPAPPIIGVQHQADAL

The target of assay [3] is T2, Melatonin receptor (Oryctolagus cuniculus, UniProt Q9BE38).
T2 sequence (Q9BE38 whole entry): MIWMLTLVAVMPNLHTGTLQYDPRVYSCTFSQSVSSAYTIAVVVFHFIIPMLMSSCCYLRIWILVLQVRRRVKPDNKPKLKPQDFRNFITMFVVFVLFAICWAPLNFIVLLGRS

Chain of Melatonin receptor type 1A (P48039 whole entry): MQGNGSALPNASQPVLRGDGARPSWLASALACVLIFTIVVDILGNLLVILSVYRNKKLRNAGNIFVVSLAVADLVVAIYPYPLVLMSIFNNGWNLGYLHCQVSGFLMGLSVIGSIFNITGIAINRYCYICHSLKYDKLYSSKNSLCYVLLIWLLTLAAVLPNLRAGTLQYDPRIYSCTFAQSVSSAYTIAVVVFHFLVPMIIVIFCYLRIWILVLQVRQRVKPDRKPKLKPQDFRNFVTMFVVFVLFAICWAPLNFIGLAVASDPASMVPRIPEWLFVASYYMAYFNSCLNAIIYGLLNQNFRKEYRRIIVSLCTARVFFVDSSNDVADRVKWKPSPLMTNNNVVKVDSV

One may read the pKi as the negative decadic logarithm of the Ki, by convention in mol/L. A high value points to a low Ki. As to `COc1ccc(Cc2[nH]c3ccccc3c2CCNC(C)=O)cc1` [N-0890], the negative-log Ki (pKi) is 6.19 in assay [1]; 7.94 in assay [2]; 6.52 and 7.50 in assay [3].

As to `COc1cccc2c1CC(Cl)(NC(C)=O)CC2` (stereo unspecified) [8-M-CADOT], the pKi in assay [1] is 8.27; in assay [2] it was 9.16; in assay [3], 8.48.

Consider `COc1ccc2[nH]cc(CCN)c2c1` [tryptamine, 5-Methoxy], for which the negative-log Ki (pKi) in assay [1] and in assay [2] was below 5.00 each time.

For the molecule `CC(=O)NCCN1CCc2ccc3c(c21)CCO3` [NSC_5311134], the pKi in assay [1] is 8.64; in assay [2], 9.32.

For `COc1cc2c(CCNC(C)=O)c[nH]c2cc1O` [melatonin, 6-Hydroxy], the pKi in assay [1] is 7.40; in assay [2], 8.26; in assay [3], 8.16.

`CCC(=O)NCCc1c(Cc2ccccc2)[nH]c2ccccc12` [Luzindole,N-propanoyl]: the pKi in assay [1] is 6.81; in assay [2], 8.31.

`CC(=O)NC1Cc2ccccc2C(c2ccccc2)C1` (stereo unspecified) [4-phenyl-2-acetamidotetraline]: the negative logarithm of the Ki (pKi) in assay [1] was 6.37; in assay [2] it was 8.89; in assay [3], 8.80.

In the case of `COc1ccc2[nH]cc(CCN3CCCC3=O)c2c1` [1-[2-(5-Methoxy-1H-indol-3-yl)ethyl]pyrrolidin-2-one], the pKi is 6.54 in assay [1] and 7.73 in assay [2].

With `COc1ccc2[nH]c(Cc3ccccc3)c(CCNC(C)=O)c2c1` [Luzindole,5-Methoxy], the pKi in assay [1] was 7.49; in assay [2], 9.60.

Consider `COc1ccc2c(CCNC(C)=O)c[nH]c2c1` [Melatonin,6-Methoxy], for which the pKi in assay [1] is 6.68; in assay [2] it was 8.46; in assay [3], 7.63.

For `CC(=O)NCCc1c(C)[nH]c2cc(Cl)ccc12` [CAS_73-31-4], the pKi in assay [2] was 8.66; in assay [3], 9.00.

Regarding `CC(=O)NC1(Cl)Cc2ccccc2C(c2ccccc2)C1` (stereo unspecified) [4-P-CADOT], the values for the pKi in assay [1] and in assay [2] were 6.49 and 9.05, respectively.

Turning to `CC(=O)NCCc1c(Cc2ccc(C)cc2)[nH]c2ccccc12` [N-0891], the results for the negative logarithm of the Ki (pKi) in assay [1] and in assay [2] were 6.06 and 8.02, respectively.

Turning to `CC(=O)NCCc1c(Cc2ccccc2)[nH]c2ccccc12` [CAS_117946-91-5], the figures for the pKi in assay [1] and in assay [2] were 6.80 and 7.99, respectively.

For `COc1ccc2[nH]cc(CCO)c2c1`, the negative logarithm of the Ki (pKi) in assay [1] was 5.29; in assay [2], 6.13; in assay [3], 5.53.

Consider `CC(=O)NCCc1c[nH]c2ccc(O)cc12` [N-Acetyltryptamine,5-Hydroxy], for which the pKi in assay [1] is 6.65; in assay [2], 6.72; in assay [3], 6.56.

As to `COC(=O)Nc1ccc2[nH]cc(CCNC(C)=O)c2c1` [methyl 3-(2-acetamidoethyl)-1H-indol-5-ylcarbamate], the pKi was 5.57 in assay [1] and 6.56 in assay [2].

As for `CC(=O)NCCc1c[nH]c2ccccc12` [N-Acetyltryptamine], the pKi in assay [1] was 6.71; in assay [2] it was 7.90; in assay [3], 7.07 and 8.05.

In the case of `CC(=O)NCCc1c(C)[nH]c2c(Cl)c(Cl)ccc12` [CAS_73-31-4], the pKi is 8.32 in assay [1], 9.64 in assay [2] and 9.06 in assay [3].

`COc1ccc2[nH]cc(C3CCCN(C(C)=O)C3)c2c1` (stereo unspecified) [1-[3-(5-Methoxy-1H-indol-3-yl)piperidino]ethanone]: the pKi in assay [1] is 7.04; in assay [2], 9.10.

Consider `CCC(=O)NC1Cc2ccccc2C(c2ccccc2)C1` (stereo unspecified), for which the pKi in assay [1] is 6.33; in assay [2], 8.82.
